Data from patent US8940310B2, “Methods of treatment using TLR7 and/or TLR9 inhibitors” (Dynavax Technologies Corporation, priority 2010, dated 2015).
[I] = hypoxanthine (inosine)

Key:
PDC = details: 129 mice, conventional and plasmacytoid DC, spleen and blood
[1] = Monomer and tetramer formation of IRPs, size-exclusion HPLC; format: physicochemical; details: 100 mg/mL in PBS and 0.5M KCl, room temperature
Procedure: Solutions were prepared of the by mixing 100 mg/mL of the IRP sequences in PBS and 0.5M KCl and storing at room temperature for three to five weeks. The solutions were subsequently analyzed by size-exclusion HPLC.

[2] = High dosages of IRPs in rats (weight, deaths, histology); format: in vivo, Sprague Dawley rats; details: rat; for Heart: Cell Vacuolation, number of animals / Heart: Hemorrhage, number of animals / Heart: Mononuclear Cell Infiltration, number of animals / Heart: Necrosis, number of animals / Heart: No significant changes, number of animals / Liver: Liver changes, number of animals / Liver: Mixed cell infiltration, number of animals / Liver: Necrosis, number of animals / Liver: No significant changes, number of animals / Liver: Vacuolation, number of animals / Right Kidney: Hydronephrosis, number of animals / Right Kidney: Mineralization, number of animals / Right Kidney: Necrosis, number of animals / Right Kidney: No significant changes, number of animals / Right Kidney: Tubular basophilia, number of animals / Right Kidney: Tubular changes, number of animals: 6 animals
Procedure: To test the activity of IRPs at high dosages in rats, IRPs (SEQ ID NO:42 and SEQ ID NO:109) or a control (PBS) were subcutaneously administered to 8-9 weeks old, […], 3, 6, and 9 (n=6 per group). Rats were weighed prior to administration and on days 1, 3, 4, 6, 7, and 9. Organs were harvested at the end of the study, and organ weights and tissues levels of the oligonucleotides were determined. In addition, histolocial evaluation of the liver, kidney, and heart was performed.
Rats were weighed prior to administration and on days 1, 3, 6, 7, and 9. Organs were harvested at the end of the study, and organ weights and tissues levels of the oligonucleotides were determined. In addition, histological evaluation of the liver, kidney, and heart was performed.

[3] = High dosages of IRPs in mice (weight, histology); format: in vivo, BALB/c mice; details: 100 mg/kg SC days 1, 4, 7, 10
Procedure: To test the activity of IRPs at high dosages in mice, IRPs or a control (saline) were subcutaneously administered to BALB/c mice at a dosage of 4 mg/kg, 20 mg/kg, 50 mg/kg, or 100 mg/kg on days 1, 4, 7, and 10 (n=5 per group). Mice were weighed prior to administration and on days 2, 4, 7, 9, and 11. Serum cytokines were assayed at two hours post the first and third injections and 24 hours post the fourth injection. Organs were harvested at the end of the study, and organ weights and tissues levels of the oligonucleotides were determined. In addition, histological evaluation of the liver, kidney, and heart was performed.
Mice were weighed prior to administration and on days 1, 3, 4, 6, 7, and 9. Organs were harvested at the end of the study, and organ weights and tissues levels of the oligonucleotides were determined. In addition, histological evaluation of the liver, kidney, and heart was performed.

human B-cells = assay: Human B-cells cultured in the presence of IRPs, IL-6
Procedure: For the human B-cell assay, B-cells were purified from total blood cells obtained from healthy donors using magnetic beads (CD19 positive). Cells were resuspended in fresh medium (RPMI 1640 with 10% fetal calf serum, 50 units/mL penicillin, 50 μg/mL streptomycin, and 2 mM glutamine). At 48 hours, supernatants were collected and cytokine levels, IL-6, were measured using immunoassay.
To further investigate the effect of IRPs on B-cell stimulatory activity, a wide variety of IRP sequences were assayed for IL-6, along with positive and negative controls. The experiment was performed as described in Example 1 using doses of IRP of either 4.0 μM or 2.0 μM. The positive control was an immunostimulatory sequence (ISS) with SEQ ID NO:157. […] The results are presented as the average normalized IL-6 response over several experiments.

[4] = Solubility of spacer measured as dialcohol precursor; format: physicochemical; details: dodecyl spacer measured as dialcohol precursor
[5] = 10 mg/kg, 0 = no change to 4 = severe
[6] = 90 mg/kg, 0 = no change to 4 = severe

## 5′-TCGTCGAACGTTCGAGATGAT-3′ [SEQ ID NO:158, reference compound]
PDC
  protection from GC-induced cell death: afforded significant protection from GC-induced cell death

## 5′-UGC TGC TCC TTG AGI GGT TGT TTG T-3′ (DNA UGCTGCTCCTTGAGNGGTTGTTTGT; DNA, [I] at 15, backbone and methylation of C not given here) [SEQ ID NO:109]
[1]; five weeks
  fraction in monomer form: 100%
[1]; three weeks
  fraction in monomer form: 100%
[2]; 10 mg/kg
  Kidney: tubular basophilia: occurred
  Heart: Cell Vacuolation, number of animals: 0
  Heart: Hemorrhage, number of animals: 0
  Heart: Mononuclear Cell Infiltration, number of animals: 0
  Heart: Necrosis, number of animals: 0
  Heart: No significant changes, number of animals: 6
  Liver: Liver changes, number of animals: 6
  Liver: Mixed cell infiltration, number of animals: 6
  Liver: Necrosis, number of animals: 0
  Liver: No significant changes, number of animals: 0
  Liver: Vacuolation, number of animals: 0
  Right Kidney: Hydronephrosis, number of animals: 0
  Right Kidney: Mineralization, number of animals: 0
  Right Kidney: Necrosis, number of animals: 0
  Right Kidney: No significant changes, number of animals: 0
  Right Kidney: Tubular basophilia, number of animals: 6
  Right Kidney: Tubular changes, number of animals: 6
[2]; 10 mg/kg or 100 mg/kg SC days 0, 3, 6, 9
  organ weight of the liver, heart, kidney, or spleen: no significant difference
[2]; [5]
  Liver: Liver changes, mean severity score: 1.0
  Liver: Mixed cell infiltration, mean severity score: 2.5
  Right Kidney: Tubular basophilia, mean severity score: 1.5
  Right Kidney: Tubular changes, mean severity score: 1.0
[2]; 90 mg/kg
  Heart: cellular vacuolation: present in some animals
  Heart: hemorrhage and necrosis: noted
  Kidney: tubular basophilia: occurred
  Liver: hepatocellular cytoplasmic vacuolation: hepatocellular cytoplasmic vacuolation
  Liver: hepatocellular necrosis: hepatocellular necrosis
  Renal necrosis: noted
  Heart: Cell Vacuolation, number of animals: 5
  Heart: Hemorrhage, number of animals: 1
  Heart: Mononuclear Cell Infiltration, number of animals: 0
  Heart: Necrosis, number of animals: 1
  Heart: No significant changes, number of animals: 0
  Liver: Liver changes, number of animals: 6
  Liver: Mixed cell infiltration, number of animals: 6
  Liver: Necrosis, number of animals: 6
  Liver: No significant changes, number of animals: 0
  Liver: Vacuolation, number of animals: 6
  Right Kidney: Hydronephrosis, number of animals: 0
  Right Kidney: Mineralization, number of animals: 1
  Right Kidney: Necrosis, number of animals: 1
  Right Kidney: No significant changes, number of animals: 0
  Right Kidney: Tubular basophilia, number of animals: 5
  Right Kidney: Tubular changes, number of animals: 5
[2]; 90 mg/kg SC, n=6
  deaths two days after the first dose: one rat died
[2]; [6]
  Heart: Cell Vacuolation, mean severity score: 1.8
  Heart: Hemorrhage, mean severity score: 3.0
  Heart: Necrosis, mean severity score: 1.0
  Liver: Liver changes, mean severity score: 3.5
  Liver: Mixed cell infiltration, mean severity score: 2.0
  Liver: Necrosis, mean severity score: 2.0
  Liver: Vacuolation, mean severity score: 2.0
  Right Kidney: Mineralization, mean severity score: 1.0
  Right Kidney: Necrosis, mean severity score: 4.0
  Right Kidney: Tubular basophilia, mean severity score: 3.0
  Right Kidney: Tubular changes, mean severity score: 2.0
[2]; 100 mg/kg
  total weight and % weight gain/loss: decrease in total weight and % weight gain/loss
[3]
  weight loss as % gain versus pre-dose: provoked weight loss
Human B-cells; Experiment # 1, Max Conc 4.0 uM
  Normalized IL-6 Response (Percentage of Positive Control): 58%
Human B-cells; Experiment # 2, Max Conc 4.0 uM
  Normalized IL-6 Response (Percentage of Positive Control): 52%
Human B-cells; Experiment # 3, Max Conc 4.0 uM
  Normalized IL-6 Response (Percentage of Positive Control): 39%
Human B-cells; Experiment # 4, Max Conc 4.0 uM
  Normalized IL-6 Response (Percentage of Positive Control): 45%
Human B-cells; Experiment # 5, Max Conc 4.0 uM
  Normalized IL-6 Response (Percentage of Positive Control): 53%
Human B-cells; Experiment # 6, Max Conc 4.0 uM
  Normalized IL-6 Response (Percentage of Positive Control): 58%
Human B-cells; Experiment # 7, Max Conc 4.0 uM
  Normalized IL-6 Response (Percentage of Positive Control): 45%
Human B-cells; Experiment # 8, Max Conc 2.0 uM
  Normalized IL-6 Response (Percentage of Positive Control): 42%
Human B-cells; Experiment # 9, Max Conc 2.0 uM
  Normalized IL-6 Response (Percentage of Positive Control): 64%
Human B-cells; Experiment # 10, Max Conc 2.0 uM
  Normalized IL-6 Response (Percentage of Positive Control): 63%
Human B-cells; Experiment # 11, Max Conc 2.0 uM
  Normalized IL-6 Response (Percentage of Positive Control): 54%
Human B-cells; human B-cells with IRP alone, 48 hours, FIGS. 1A-B
  B-cell response as evidenced by IL-6 produced: induced a B-cell response

## OCCCCCCCCCCCCO [1,12-dihydroxydodecane]
[4]
  solubility: < 5000 µg/mL
